Structures can show the parent of a compound that is named as a salt. Where two headings read alike, the source gives them in different places.
What was measured:
[1] = system: S. aureus ATCC 29213 (Sensitive); experiment: MIC, agar dilution; format: cell-based; conditions: S. aureus ATCC 29213; Table IA; unit assumed
E. coli BAJ9003 = experiment: MIC, agar dilution (Table IA); format: cell-based
[2] = system: X. maltophilia NEMC 87210; experiment: MIC, agar dilution (Table IA); format: cell-based; conditions: unit assumed
E. coli MC4100 Tet sens. = experiment: MIC, agar dilution (Table IA); format: cell-based; conditions: unit assumed
[3] = system: S. aureus UBMS 90-2 (tetM); experiment: MIC, agar dilution; format: cell-based; conditions: S. aureus UBMS 90-2 TetM; Table IA; unit assumed
[4] = system: S. aureus IVES 1983 (meth. resistant); experiment: MIC, agar dilution; format: cell-based; conditions: S. aureus IVES 1983; Table IA; unit assumed
[5] = system: S. haemolyticus AVAH 88-3; experiment: MIC, agar dilution; format: cell-based; conditions: S. hemolyticus AVHAH 88-3; Table IA; unit assumed
E. coli J3272 TetD = experiment: MIC, agar dilution (Table IA); format: cell-based; conditions: unit assumed
E. coli UBMS 89-1 (tetM) = experiment: MIC, agar dilution; format: cell-based; conditions: E. coli UBMS 89-1 TetM; Table IA; unit assumed
E. coli PRP1 TetA = experiment: MIC, agar dilution (Table IA); format: cell-based; conditions: unit assumed
S. aureus ROSE (MP) = experiment: MIC, agar dilution (Table IA); format: cell-based; conditions: unit assumed
S. aureus NEMC 8769/89-4 = experiment: MIC, agar dilution (Table IA); format: cell-based
[6] = system: S. aureus IVES 2943 (meth. resistant); experiment: MIC, agar dilution; format: cell-based; conditions: S. aureus IVES 2943; Table IA; unit assumed
E. coli ATCC 25922 = experiment: MIC, agar dilution; format: cell-based; conditions: E. coli ATCC 25922; Table IA; unit assumed
E. coli UBMS 88-1 (tetB) = experiment: MIC, agar dilution; format: cell-based; conditions: E. coli UBMS 88-1 TetB; Table IA; unit assumed
[7] = system: S. aureus UBMS 90-1 (tetM); experiment: MIC, agar dilution; format: cell-based; conditions: S. aureus UBMS 90-1 TetM; Table IA; unit assumed
[8] = system: S. aureus UBMS 88-5 (tetM); experiment: MIC, agar dilution; format: cell-based; conditions: S. aureus UBMS 88-5 TetM; Table IA; unit assumed
S. aureus SMITH (sens) [9] = experiment: In vivo antibacterial evaluation, acute lethal infection in mice
Source text: In Vivo Antibacterial Evaluation (Table VII)

E. faecalis 12201 = experiment: MIC, agar dilution; format: cell-based; conditions: Enterococcus 12201; Table IA; unit assumed
E. faecalis ATCC 29212 = experiment: MIC, agar dilution; format: cell-based; conditions: E. faecalis ATCC 29212; Table IA; unit assumed
[10] = system: E. coli UBMS 89-2 (Sensitive); experiment: MIC, agar dilution; format: cell-based; conditions: E. coli UBMS 89-2 Tet Sens.; Table IA; unit assumed
E. coli MC4100 TetB = experiment: MIC, agar dilution (Table IA); format: cell-based; conditions: unit assumed
E. coli #311 (MP) = experiment: MIC, agar dilution (Table IA); format: cell-based; conditions: unit assumed
[11] = system: S. aureus Smith (Sensitive); experiment: MIC, agar dilution; format: cell-based; conditions: S. aureus SMITH (MP); Table IA; unit assumed
[12] = system: S. aureus UBMS 90-3 (Sensitive); experiment: MIC, agar dilution; format: cell-based; conditions: S. aureus UBMS 90-3; Table IA; unit assumed
[13] = system: S. aureus UBMS 88-7 (tetK); experiment: MIC, agar dilution; format: cell-based; conditions: S. aureus UBMS 88-7 TetK; Table IA; unit assumed
E. coli UBMS 90-4 (tetM) = experiment: MIC, agar dilution; format: cell-based; conditions: E. coli UBMS 90-4 TetM; Table IA; unit assumed
E. coli J2175 = experiment: MIC, agar dilution (Table IA); format: cell-based; conditions: unit assumed
E. coli J3272 TetC = experiment: MIC, agar dilution (Table IA); format: cell-based; conditions: unit assumed
S. mariescens FDOR 8733 = experiment: MIC, agar dilution (Table IA); format: cell-based; conditions: unit assumed
E. coli UBMS 90-5 = experiment: MIC, agar dilution (Table IA); format: cell-based; conditions: unit assumed
[14] = system: S. aureus UBMS 88-4 (Sensitive); experiment: MIC, agar dilution; format: cell-based; conditions: S. aureus UBMS 88-4; Table IA; unit assumed
[15] = system: Ps. acruginosa ATCC 27853; experiment: MIC, agar dilution (Table IA); format: cell-based; conditions: unit assumed
S. aureus SMITH (sens) [16] = experiment: In vivo antibacterial evaluation, acute lethal infection in mice; conditions: Intraveneous
E. coli J3272 Tet sens. = experiment: MIC, agar dilution (Table IA); format: cell-based; conditions: unit assumed

Structure (SMILES)	Antibacterial activity (MIC) [1] [µg/mL]	Antibacterial activity (MIC) [2] [µg/mL]	Antibacterial activity (MIC) [3] [µg/mL]	Antibacterial activity (MIC) [4] [µg/mL]	Antibacterial activity (MIC) [5] [µg/mL]	Antibacterial activity (MIC) (E. coli J3272 TetD) [µg/mL]	Antibacterial activity (MIC) (E. coli UBMS 89-1 (tetM)) [µg/mL]	Antibacterial activity (MIC) (E. coli PRP1 TetA) [µg/mL]	Antibacterial activity (MIC) (S. aureus ROSE (MP)) [µg/mL]	Antibacterial activity (MIC) [6] [µg/mL]	Antibacterial activity (MIC) (E. coli ATCC 25922) [µg/mL]	Antibacterial activity (MIC) (E. coli UBMS 88-1 (tetB)) [µg/mL]	Antibacterial activity (MIC) [7] [µg/mL]	ED50 (S. aureus SMITH (sens) [9]; Oral) [mg/kg]	Antibacterial activity (MIC) (E. faecalis 12201) [µg/mL]	Antibacterial activity (MIC) (E. faecalis ATCC 29212) [µg/mL]	Antibacterial activity (MIC) [10] [µg/mL]	Antibacterial activity (MIC) (E. coli MC4100 TetB) [µg/mL]	Antibacterial activity (MIC) (E. coli #311 (MP)) [µg/mL]	Antibacterial activity (MIC) [11] [µg/mL]	other results
CN(C)c1cc(NC(=O)CNCc2ccccc2)c(O)c2c1CC1CC3C(N(C)C)C(O)=C(C(N)=O)C(=O)C3(O)C(O)=C1C2=O.Cl.Cl (stereo not drawn) [EEE, [4S-(4alpha,12aalpha)]-4,7-Bis(dimethylamino)-1,4,4a,5,5a,6,11,12a-octahydro-3,10,12,12a-tetrahydroxy-1,11-dioxo-9-[[[(phenylmethyl)amino]acetyl]amino]-2-naphthacenecarboxamide dihydrochloride]	0.5	1	0.25	2	2	0.5	0.5	4	8	2	0.5	2	0.5	8 to 16	0.25	0.25	4	4	0.5	0.25	Antibacterial activity (MIC) (E. coli BAJ9003; unit assumed): 0.25 µg/mL; Antibacterial activity (MIC) (E. coli MC4100 Tet sens.): 0.5 µg/mL; Antibacterial activity (MIC) (S. aureus NEMC 8769/89-4; unit assumed): 0.12 µg/mL; Antibacterial activity (MIC) [8]: 0.5 µg/mL; Antibacterial activity (MIC) [12]: 0.25 µg/mL; Antibacterial activity (MIC) [13]: 2 µg/mL; Antibacterial activity (MIC) (E. coli UBMS 90-4 (tetM)): 0.5 µg/mL; Antibacterial activity (MIC) (E. coli J2175): 4 µg/mL; Antibacterial activity (MIC) (E. coli J3272 TetC): 2 µg/mL; Antibacterial activity (MIC) (S. mariescens FDOR 8733): 4 µg/mL; Antibacterial activity (MIC) (E. coli UBMS 90-5): 0.5 µg/mL; Antibacterial activity (MIC) [14]: 0.25 µg/mL; Antibacterial activity (MIC) [15]: 32 µg/mL
CN(C)CC(=O)Nc1cc(N(C)C)c2c(c1O)C(=O)C1=C(O)C3(O)C(=O)C(C(N)=O)=C(O)C(N(C)C)C3CC1C2.O=S(=O)(O)O.O=S(=O)(O)O (stereo not drawn) [JJ, [4S-(4alpha,12aalpha))-4,7-Bis(dimethylamino)-9-([(dimethylamino)acetyl)amino]-1,4,4a,5,5a,6,11,12a-octahydro-3,10,12,12a-tetrahydroxy-1,11-dioxo-2-naphthacenecarboxamide disulfate]	0.03	0.5	0.25	2	0.25	0.12	0.25	2	2	2	0.25	0.25	0.25	9.6	0.12	0.12	0.25	0.25	0.25	0.12	Antibacterial activity (MIC) (E. coli BAJ9003; unit assumed): 0.03 µg/mL; ED50 (S. aureus SMITH (sens) [16]): 0.61 mg/kg; Antibacterial activity (MIC) (S. aureus NEMC 8769/89-4; unit assumed): 0.06 µg/mL; Antibacterial activity (MIC) [8]: 0.25 µg/mL; ED50 (S. aureus SMITH (sens) [9]; Subcutaneous): 0.66 mg/kg; Antibacterial activity (MIC) (E. coli J3272 Tet sens.): 0.25 µg/mL; Antibacterial activity (MIC) [12]: 0.12 µg/mL; Antibacterial activity (MIC) [13]: 1 µg/mL; Antibacterial activity (MIC) (E. coli UBMS 90-4 (tetM)): 0.25 µg/mL; Antibacterial activity (MIC) (E. coli J2175): 0.25 µg/mL; Antibacterial activity (MIC) (E. coli J3272 TetC): 1 µg/mL; Antibacterial activity (MIC) (S. mariescens FDOR 8733): 4 µg/mL; Antibacterial activity (MIC) (E. coli UBMS 90-5): 0.25 µg/mL; Antibacterial activity (MIC) [14]: 0.25 µg/mL; Antibacterial activity (MIC) [15]: 8 µg/mL
CN(C)CC(=O)Nc1cc(N(C)C)c2c(c1O)C(=O)C1=C(O)C3(O)C(=O)C(C(N)=O)=C(O)C(N(C)C)C3CC1C2 (stereo not drawn) [LL, [4S-(4alpha,12aalpha)]-4,7-Bis(dimethylamino)-9-[[(dimethylamino)acetyl]amino]-1,4,4a,5,5a,6,11,12a-octahydro-3,10,12,12a-tetrahydroxy-1,11-dioxo-2-naphthacenecarboxamide]	0.06	0.25	0.12	1	0.12	0.06	0.12	1	1	1	0.12	0.25	0.12	4 to 8	0.06	0.06	0.12	0.25	0.12	0.06	ED50 (S. aureus SMITH (sens) [16]): 0.25 to 0.5 mg/kg; Antibacterial activity (MIC) (S. aureus NEMC 8769/89-4): ≦0.015; Antibacterial activity (MIC) [8]: 0.12 µg/mL; Antibacterial activity (MIC) (E. coli J3272 Tet sens.): 0.12 µg/mL; Antibacterial activity (MIC) [12]: 0.06 µg/mL; Antibacterial activity (MIC) [13]: 0.5 µg/mL; Antibacterial activity (MIC) (E. coli UBMS 90-4 (tetM)): 0.25 µg/mL; Antibacterial activity (MIC) (E. coli J2175): 0.12 µg/mL; Antibacterial activity (MIC) (E. coli J3272 TetC): 0.5 µg/mL; Antibacterial activity (MIC) (S. mariescens FDOR 8733): 2 µg/mL; Antibacterial activity (MIC) (E. coli UBMS 90-5): 0.12 µg/mL; Antibacterial activity (MIC) [14]: 0.06 µg/mL; Antibacterial activity (MIC) [15]: 4 µg/mL
CN(C)c1cc(NC(=O)CN2CCCC2)c(O)c2c1CC1CC3[C@H](N(C)C)C(O)=C(C(N)=O)C(=O)[C@@]3(O)C(O)=C1C2=O (stereo partly drawn) [SS, [7S-(7alpha,10aalpha)]-N-[9-(Aminocarbonyl)-4,7-bis(dimethylamino)-5,5a,6,6a,7,10,10a,12-octahydro-1,8,10a,11-tetrahydroxy-10,12-dioxo-2-naphthacenyl]-1-pyrrolidineacetamide dihydrochloride]	0.12	0.5	0.12	0.5	0.25	0.12	0.12	0.5	1	1	0.25	0.25	0.12	8 to 16	0.12	0.12	0.25	0.25	0.12	0.12	Antibacterial activity (MIC) (E. coli BAJ9003): ≦0.015; ED50 (S. aureus SMITH (sens) [16]): 1 to 2 mg/kg; Antibacterial activity (MIC) (S. aureus NEMC 8769/89-4; unit assumed): 0.03 µg/mL; Antibacterial activity (MIC) (E. coli J3272 Tet sens.): 0.25 µg/mL; Antibacterial activity (MIC) [12]: 0.12 µg/mL; Antibacterial activity (MIC) [13]: 0.5 µg/mL; Antibacterial activity (MIC) (E. coli UBMS 90-4 (tetM)): 0.25 µg/mL; Antibacterial activity (MIC) (E. coli J2175): 0.25 µg/mL; Antibacterial activity (MIC) (E. coli J3272 TetC): 0.25 µg/mL; Antibacterial activity (MIC) (S. mariescens FDOR 8733): 2 µg/mL; Antibacterial activity (MIC) (E. coli UBMS 90-5): 0.25 µg/mL; Antibacterial activity (MIC) [14]: 0.12 µg/mL; Antibacterial activity (MIC) [15]: 16 µg/mL

— patent USRE40086E1, “Method for treating bacterial infection with novel 7-substituted-9-substituted amino 6-demethyl-6-deoxytetracyclines” (Wyeth Holdings Corporation, priority 1991, dated 2008)
